Assay [1] relates to HEK293. Briefly: optical interference in Abeta FP readout, dose response, artefact control for IDE activator project, biochemical, fluorescence polarization (AID 588442). The note with it: Homo sapiens. The format is functional, cell-based. For orientation: In fluorescence polarisation assays a small probe gives low polarisation when free and higher when bound to something large.

In assay [2] the target is T1, Insulin-degrading enzyme (Homo sapiens, UniProt P14735).
T1 sequence (P14735 whole entry): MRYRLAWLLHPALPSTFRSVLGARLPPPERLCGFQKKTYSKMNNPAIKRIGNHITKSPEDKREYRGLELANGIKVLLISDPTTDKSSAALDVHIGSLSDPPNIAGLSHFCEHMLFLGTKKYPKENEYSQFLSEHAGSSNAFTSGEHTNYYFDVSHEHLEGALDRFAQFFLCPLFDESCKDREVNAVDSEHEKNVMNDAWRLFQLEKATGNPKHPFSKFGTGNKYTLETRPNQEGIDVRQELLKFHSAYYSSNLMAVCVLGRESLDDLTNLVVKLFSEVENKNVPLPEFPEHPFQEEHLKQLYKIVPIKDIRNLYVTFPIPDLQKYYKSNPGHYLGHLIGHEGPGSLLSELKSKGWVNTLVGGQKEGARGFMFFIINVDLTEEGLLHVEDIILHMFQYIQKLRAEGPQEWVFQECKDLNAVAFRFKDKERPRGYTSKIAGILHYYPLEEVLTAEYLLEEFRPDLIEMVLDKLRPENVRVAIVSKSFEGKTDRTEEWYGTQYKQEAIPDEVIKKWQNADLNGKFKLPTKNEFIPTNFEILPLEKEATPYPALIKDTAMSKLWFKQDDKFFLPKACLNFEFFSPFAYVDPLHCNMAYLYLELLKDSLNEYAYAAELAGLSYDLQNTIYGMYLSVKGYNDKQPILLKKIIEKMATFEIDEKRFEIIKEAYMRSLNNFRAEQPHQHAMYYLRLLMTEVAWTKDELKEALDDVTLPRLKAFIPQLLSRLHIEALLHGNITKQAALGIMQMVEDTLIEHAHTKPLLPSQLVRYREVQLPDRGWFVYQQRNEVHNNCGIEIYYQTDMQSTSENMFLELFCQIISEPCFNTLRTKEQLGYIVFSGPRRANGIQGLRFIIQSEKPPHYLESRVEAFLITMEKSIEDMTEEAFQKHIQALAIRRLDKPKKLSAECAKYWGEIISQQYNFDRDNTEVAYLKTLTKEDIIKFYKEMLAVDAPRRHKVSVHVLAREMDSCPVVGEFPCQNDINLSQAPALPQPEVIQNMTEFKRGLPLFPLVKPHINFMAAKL
Briefly: recombinant IDE activation, cell-free – biochemical, fluorescence polarization, counter-screen for IDE activator project, dose response (AID 588681).

The target of assay [3] is T1, Insulin-degrading enzyme. The assay can be described thus: cellular IDE activation of Abeta substrate cleavage – fluorescence polarization, HEK cells, dose response (AID 588439). The format is functional, cell-based.
In assay [4] the test system is HEK293. The assay can be described thus: membrane integrity loss in HEK cells – cell-based, fluorescence, cytotoxicity control for IDE activator project, dose response (AID 588440).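 Note: cytotoxicity by LDH release measuring loss of membrane integrity.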 Format: functional. The note with it: Homo sapiens.
Assay [5] deals with Phospholipase D1 (Homo sapiens, UniProt Q13393). The assay can be described thus: cellular phospholipase D1 inhibition IC50 – cell-based, dose response (AID 602151).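 Note: cellular PLD1 assay in Calu-1 cells stimulated with PMA.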 The format is functional.
In assay [6] the target is Phospholipase D2 (Homo sapiens, UniProt O14939). The assay can be described thus: cellular phospholipase D2 inhibition IC50 – cell-based, dose response (AID 602147).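 Note: cellular assay in HEK293 cells overexpressing GFP-tagged PLD2.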 The format is functional.
For assay [7], the target named is Beta-galactosidase (Escherichia coli, UniProt Q8VNN2). Briefly: detection-enzyme interference by beta-gal modulators – biochemical, E. coli enzyme, set 3, artefact control for CCR6 antagonist project, dose response (AID 504712). The format is functional.
Assay [8] deals with Glucose-6-phosphate 1-dehydrogenase (Homo sapiens, UniProt P11413). The assay can be described thus: inhibition of Homo sapiens G6PD, dose series – biochemical, fluorescence, selectivity assay for P. falciparum G6PD inhibitor project, dose response (AID 504792). The format is functional.
Assay [9] is described as follows: viability loss in THP-1 monocytes – THP-1 cells, cytotoxicity control for Vif-APOBEC3G degradation inhibitor project, dose response (AID 1117359). Format: functional. The note with it: THP-1.
Assay [10] addresses Genome polyprotein (dengue virus type 2, UniProt P29990). Briefly: flavivirus cap methylation enzyme inhibition – biochemical, confirmation dose response, primary screen (AID 588689). The format is functional.
In assay [11] the target is Paired box protein Pax-8 (Homo sapiens, UniProt Q06710). Briefly: PAX8 transcriptional activity inhibition in RMG-I – RMG-I cells, luciferase, cherry-pick, dose response (AID 687027).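 Note: luciferase reporter driven by Pax8 target thyroperoxidase promoter measured by SteadyGlo luminescence.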 Format: functional, cell-based.
Assay [12] can be described thus: Fluorescence-based cell-based high throughput dose response assay for inhibitors of the interaction of nucleotide-binding oligomerization domain containing 2 (NOD2) and the receptor-interacting serine-threonine kinase 2 (RIPK2). Format: functional. The note with it: Homo sapiens.
Assay [13] has as its target T2, Hexokinase HKDC1 (Homo sapiens, UniProt Q2TB90).
T2 sequence (Q2TB90 whole entry): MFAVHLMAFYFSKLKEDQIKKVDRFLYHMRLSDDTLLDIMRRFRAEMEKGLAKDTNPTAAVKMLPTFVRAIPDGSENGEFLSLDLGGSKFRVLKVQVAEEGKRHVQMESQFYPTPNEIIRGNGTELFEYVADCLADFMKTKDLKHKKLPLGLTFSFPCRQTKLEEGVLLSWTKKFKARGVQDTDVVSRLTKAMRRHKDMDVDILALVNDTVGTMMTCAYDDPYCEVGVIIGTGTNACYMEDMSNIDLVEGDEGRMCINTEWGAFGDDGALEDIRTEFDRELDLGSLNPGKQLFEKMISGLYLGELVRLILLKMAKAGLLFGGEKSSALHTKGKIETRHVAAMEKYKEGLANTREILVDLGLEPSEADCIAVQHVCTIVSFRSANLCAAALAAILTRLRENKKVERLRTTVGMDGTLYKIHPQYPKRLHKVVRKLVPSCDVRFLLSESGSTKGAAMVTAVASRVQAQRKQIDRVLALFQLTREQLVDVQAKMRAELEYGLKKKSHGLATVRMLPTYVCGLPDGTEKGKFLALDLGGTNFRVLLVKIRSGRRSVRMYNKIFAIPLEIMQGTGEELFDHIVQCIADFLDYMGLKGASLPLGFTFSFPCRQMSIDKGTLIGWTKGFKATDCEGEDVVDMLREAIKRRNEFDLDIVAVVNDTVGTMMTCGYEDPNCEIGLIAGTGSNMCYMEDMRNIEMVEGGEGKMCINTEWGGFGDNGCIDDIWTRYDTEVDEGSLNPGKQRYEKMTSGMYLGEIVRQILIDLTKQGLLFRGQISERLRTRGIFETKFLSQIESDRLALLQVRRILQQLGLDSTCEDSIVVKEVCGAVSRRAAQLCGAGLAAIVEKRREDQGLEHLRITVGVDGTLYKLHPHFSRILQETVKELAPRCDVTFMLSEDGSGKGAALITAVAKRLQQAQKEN
Briefly: inhibition of HKDC1 glucose phosphorylation – biochemical, W721R variant, dose response (AID 504729). Format: functional.

The target of assay [14] is T3, Tyrosyl-DNA phosphodiesterase 2 (Homo sapiens, UniProt O95551).
T3 sequence (O95551 whole entry): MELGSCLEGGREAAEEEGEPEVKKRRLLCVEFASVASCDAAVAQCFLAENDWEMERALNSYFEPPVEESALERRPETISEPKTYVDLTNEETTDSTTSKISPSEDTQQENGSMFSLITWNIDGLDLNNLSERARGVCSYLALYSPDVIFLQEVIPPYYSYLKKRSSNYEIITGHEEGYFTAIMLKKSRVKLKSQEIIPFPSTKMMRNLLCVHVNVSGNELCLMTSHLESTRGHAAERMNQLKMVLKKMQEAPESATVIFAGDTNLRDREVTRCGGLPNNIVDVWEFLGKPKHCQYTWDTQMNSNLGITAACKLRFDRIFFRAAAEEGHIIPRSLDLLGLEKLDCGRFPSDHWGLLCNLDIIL
Briefly: potency against TDP2 phosphodiesterase activity – biochemical, epi absorbance, IC50, dose response (AID 743297).

For assay [15], the system named is Vero. Briefly: viability of Vero cells under compound – cytotoxicity control for flavivirus capping enzyme inhibitors (AID 588742). Format: functional. The note with it: Chlorocebus sabaeus.
Assay [16] has as its target T4, Mitochondrial peptide methionine sulfoxide reductase (Bos taurus, UniProt P54149).
T4 sequence (P54149 whole entry): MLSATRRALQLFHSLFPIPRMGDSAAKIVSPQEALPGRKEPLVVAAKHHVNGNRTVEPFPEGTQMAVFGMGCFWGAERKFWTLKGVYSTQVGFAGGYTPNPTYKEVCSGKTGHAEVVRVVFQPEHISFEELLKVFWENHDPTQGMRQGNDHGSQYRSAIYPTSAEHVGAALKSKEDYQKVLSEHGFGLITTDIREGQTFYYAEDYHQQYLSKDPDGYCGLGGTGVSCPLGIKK
The assay can be described thus: Absorbance-based biochemical high throughput dose response assay for activators of Methionine sulfoxide reductase A (MsrA). Format: functional.

Assay [17] deals with T5, C-C chemokine receptor type 6 (Homo sapiens, UniProt P51684).
T5 sequence (P51684 whole entry): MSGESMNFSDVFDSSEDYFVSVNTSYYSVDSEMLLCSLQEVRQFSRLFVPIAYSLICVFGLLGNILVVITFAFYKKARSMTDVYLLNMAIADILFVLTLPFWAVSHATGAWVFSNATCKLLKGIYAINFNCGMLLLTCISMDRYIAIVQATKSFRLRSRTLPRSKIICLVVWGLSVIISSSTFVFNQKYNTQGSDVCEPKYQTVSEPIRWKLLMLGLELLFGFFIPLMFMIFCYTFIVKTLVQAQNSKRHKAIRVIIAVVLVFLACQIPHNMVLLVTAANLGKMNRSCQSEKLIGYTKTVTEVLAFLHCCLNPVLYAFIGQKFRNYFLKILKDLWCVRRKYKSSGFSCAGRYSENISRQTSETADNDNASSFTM
The assay can be described thus: antagonism of CCR6 beta-arrestin recruitment – cell-based, luminescent beta-arrestin readout, dose response (AID 504728). Format: functional.

Assay [18] can be described thus: general cell-killing toxicity readout – plate reader, dry powder samples, cytotoxicity control for PAX8 inhibitor project, dose response (AID 743021). Format: functional, cell-based.

Each structure is given as a SMILES string. Activity calls are given as the source filed them.

Phospholipase D2, sequence (O14939 whole entry): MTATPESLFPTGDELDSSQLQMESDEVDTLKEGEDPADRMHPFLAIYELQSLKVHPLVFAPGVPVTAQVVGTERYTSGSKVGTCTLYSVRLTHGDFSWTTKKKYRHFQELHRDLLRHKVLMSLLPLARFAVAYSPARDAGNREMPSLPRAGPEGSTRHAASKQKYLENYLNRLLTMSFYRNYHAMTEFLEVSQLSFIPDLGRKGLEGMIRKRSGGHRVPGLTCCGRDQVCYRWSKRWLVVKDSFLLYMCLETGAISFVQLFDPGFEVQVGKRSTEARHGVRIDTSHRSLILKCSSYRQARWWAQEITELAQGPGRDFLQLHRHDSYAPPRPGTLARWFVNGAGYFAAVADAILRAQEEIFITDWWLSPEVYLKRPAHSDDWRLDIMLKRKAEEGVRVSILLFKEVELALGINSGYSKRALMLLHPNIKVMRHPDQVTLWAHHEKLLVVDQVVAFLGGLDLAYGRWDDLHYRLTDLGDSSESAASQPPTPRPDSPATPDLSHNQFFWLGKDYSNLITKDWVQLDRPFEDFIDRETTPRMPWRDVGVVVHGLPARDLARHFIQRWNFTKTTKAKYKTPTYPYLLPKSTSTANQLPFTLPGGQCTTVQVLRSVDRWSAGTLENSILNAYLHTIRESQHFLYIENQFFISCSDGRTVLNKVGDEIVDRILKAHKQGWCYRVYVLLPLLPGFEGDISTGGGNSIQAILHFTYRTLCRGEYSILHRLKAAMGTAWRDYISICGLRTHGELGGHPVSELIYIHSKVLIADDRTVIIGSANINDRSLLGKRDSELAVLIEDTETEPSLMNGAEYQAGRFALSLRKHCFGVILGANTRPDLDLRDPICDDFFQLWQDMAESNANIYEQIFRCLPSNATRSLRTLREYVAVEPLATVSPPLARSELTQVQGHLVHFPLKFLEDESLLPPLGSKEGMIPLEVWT
Phospholipase D1, sequence (Q13393 whole entry): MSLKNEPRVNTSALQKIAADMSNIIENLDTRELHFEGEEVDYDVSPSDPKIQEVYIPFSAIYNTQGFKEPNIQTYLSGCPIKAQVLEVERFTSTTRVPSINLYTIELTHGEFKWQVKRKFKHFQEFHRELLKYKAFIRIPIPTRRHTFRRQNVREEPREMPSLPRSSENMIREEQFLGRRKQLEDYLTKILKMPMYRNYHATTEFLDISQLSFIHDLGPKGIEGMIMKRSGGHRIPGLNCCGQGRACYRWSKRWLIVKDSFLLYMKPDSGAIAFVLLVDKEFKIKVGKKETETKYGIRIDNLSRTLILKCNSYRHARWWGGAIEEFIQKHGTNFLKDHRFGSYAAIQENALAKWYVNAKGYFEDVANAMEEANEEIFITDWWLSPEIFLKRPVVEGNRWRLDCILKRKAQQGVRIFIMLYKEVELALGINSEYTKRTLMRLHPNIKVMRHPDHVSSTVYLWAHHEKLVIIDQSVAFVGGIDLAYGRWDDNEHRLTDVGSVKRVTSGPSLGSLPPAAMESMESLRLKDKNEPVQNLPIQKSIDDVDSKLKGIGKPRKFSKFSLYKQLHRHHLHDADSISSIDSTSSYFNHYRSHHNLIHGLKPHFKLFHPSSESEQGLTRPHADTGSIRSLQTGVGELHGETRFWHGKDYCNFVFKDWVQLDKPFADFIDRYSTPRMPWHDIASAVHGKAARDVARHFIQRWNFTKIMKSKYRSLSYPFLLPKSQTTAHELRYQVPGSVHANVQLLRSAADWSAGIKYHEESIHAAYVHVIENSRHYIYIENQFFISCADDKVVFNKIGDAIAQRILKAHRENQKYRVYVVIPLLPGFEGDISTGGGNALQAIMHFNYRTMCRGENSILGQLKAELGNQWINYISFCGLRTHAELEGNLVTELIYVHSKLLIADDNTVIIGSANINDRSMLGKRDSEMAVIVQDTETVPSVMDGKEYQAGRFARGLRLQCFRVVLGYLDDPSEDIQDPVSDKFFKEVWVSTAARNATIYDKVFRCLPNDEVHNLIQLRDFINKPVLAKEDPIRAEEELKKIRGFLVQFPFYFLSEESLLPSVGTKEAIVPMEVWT
Beta-galactosidase, sequence (Q8VNN2 whole entry): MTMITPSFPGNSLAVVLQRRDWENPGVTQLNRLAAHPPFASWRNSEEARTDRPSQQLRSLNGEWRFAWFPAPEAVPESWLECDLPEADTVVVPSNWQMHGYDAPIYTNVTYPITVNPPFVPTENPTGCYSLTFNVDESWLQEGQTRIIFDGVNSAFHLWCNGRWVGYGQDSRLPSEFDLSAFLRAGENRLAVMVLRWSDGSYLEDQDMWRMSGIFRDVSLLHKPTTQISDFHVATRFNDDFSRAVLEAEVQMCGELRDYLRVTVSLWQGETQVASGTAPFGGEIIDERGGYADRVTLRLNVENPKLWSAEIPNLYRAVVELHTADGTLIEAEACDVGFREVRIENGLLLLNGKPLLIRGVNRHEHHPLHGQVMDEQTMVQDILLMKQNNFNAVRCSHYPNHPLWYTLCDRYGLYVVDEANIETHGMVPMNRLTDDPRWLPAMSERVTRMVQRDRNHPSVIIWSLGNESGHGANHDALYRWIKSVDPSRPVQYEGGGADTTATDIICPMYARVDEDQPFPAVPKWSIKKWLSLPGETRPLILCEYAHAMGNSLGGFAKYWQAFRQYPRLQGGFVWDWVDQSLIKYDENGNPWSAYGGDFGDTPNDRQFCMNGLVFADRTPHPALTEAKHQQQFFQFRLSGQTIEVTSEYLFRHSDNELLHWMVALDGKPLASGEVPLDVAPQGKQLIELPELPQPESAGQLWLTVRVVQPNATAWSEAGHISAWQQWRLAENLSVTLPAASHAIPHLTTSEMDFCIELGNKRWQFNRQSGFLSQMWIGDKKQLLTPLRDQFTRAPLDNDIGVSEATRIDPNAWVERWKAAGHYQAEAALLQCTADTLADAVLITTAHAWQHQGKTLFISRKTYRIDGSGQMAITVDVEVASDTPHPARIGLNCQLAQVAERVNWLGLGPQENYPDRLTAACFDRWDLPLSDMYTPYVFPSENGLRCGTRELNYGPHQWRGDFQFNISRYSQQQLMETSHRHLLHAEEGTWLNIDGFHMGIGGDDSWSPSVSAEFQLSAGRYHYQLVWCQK
Glucose-6-phosphate 1-dehydrogenase, sequence (P11413 whole entry): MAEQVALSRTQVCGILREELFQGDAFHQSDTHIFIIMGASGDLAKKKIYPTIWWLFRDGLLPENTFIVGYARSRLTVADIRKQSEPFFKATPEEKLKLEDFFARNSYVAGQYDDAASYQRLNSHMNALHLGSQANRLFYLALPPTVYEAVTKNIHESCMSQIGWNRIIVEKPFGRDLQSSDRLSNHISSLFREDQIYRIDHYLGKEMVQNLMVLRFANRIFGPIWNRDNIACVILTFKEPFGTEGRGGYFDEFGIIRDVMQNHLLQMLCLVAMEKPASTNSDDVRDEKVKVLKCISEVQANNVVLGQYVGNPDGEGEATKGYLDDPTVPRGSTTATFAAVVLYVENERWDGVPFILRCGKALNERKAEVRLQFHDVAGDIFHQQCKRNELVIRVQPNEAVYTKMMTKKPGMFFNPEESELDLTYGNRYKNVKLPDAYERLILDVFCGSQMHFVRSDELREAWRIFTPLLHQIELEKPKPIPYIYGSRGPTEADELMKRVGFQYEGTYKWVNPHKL
Genome polyprotein, sequence (P29990 2492-3391 limits assumed): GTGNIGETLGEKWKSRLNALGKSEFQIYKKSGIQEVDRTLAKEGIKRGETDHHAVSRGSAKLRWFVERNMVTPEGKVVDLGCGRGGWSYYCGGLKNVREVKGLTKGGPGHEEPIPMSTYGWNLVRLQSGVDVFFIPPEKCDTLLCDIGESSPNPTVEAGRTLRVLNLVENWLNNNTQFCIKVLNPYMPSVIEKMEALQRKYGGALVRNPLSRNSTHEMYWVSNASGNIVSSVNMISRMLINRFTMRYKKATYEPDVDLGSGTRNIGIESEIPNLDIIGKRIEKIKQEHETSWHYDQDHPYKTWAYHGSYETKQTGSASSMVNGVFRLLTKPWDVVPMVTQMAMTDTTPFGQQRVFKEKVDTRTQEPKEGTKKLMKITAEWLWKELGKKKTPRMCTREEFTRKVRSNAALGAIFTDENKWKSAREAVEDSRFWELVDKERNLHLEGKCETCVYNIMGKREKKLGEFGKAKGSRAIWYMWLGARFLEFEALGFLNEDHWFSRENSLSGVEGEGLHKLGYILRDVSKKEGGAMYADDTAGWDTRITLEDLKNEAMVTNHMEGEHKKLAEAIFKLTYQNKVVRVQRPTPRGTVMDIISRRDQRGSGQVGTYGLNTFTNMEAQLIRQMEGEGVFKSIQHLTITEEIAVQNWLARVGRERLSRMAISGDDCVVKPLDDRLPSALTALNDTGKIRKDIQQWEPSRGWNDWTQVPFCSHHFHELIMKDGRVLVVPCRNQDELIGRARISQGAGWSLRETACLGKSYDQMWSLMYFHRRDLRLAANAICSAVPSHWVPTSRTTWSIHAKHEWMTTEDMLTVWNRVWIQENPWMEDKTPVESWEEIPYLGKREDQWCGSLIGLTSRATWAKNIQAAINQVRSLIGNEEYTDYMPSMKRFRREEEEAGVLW
Paired box protein Pax-8, sequence (Q06710 whole entry, the tested form may be a part): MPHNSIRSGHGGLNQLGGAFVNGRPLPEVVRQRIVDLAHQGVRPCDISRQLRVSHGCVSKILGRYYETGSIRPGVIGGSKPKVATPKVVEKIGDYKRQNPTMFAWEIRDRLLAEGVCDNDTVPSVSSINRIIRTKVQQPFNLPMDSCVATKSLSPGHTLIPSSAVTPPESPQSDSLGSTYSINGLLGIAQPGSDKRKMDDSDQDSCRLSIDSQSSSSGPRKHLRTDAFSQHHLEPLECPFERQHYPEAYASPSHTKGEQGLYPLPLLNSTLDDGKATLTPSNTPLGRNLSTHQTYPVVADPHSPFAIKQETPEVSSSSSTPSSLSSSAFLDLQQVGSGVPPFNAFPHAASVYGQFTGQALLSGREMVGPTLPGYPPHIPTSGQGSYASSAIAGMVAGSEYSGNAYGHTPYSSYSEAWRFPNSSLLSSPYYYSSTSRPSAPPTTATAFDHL

For the compound `COC(=O)C(C(=O)OC)c1ncccc1[N+](=O)[O-]`, the EC50 – broadly, the concentration at which the effect is half-maximal – in [1] is > 55.9 µM (inactive); in assay [2], > 54.7 µM (inactive); in assay [3], > 54.7 µM (inactive). The IC50 (in general, the concentration that inhibits the measured activity by half) in [4] was > 89.1 µM (inactive).

For the compound `CC(C)[C@@H](CN1CCC2(CC1)C(=O)NCN2c1ccccc1)NC(=O)c1ccc2ccccc2c1`, the results for the IC50 in [5] and in assay [6] were 0.14 µM (active) and 1.5 µM (active), respectively.

Consider `C[C@@H](CN1CCC(n2c(=O)[nH]c3cc(I)ccc32)CC1)NC(=O)C1CC1c1ccccc1` (some centres undefined), for which the IC50 in assay [5] was 0.021 µM (active); in assay [6], 6.5 µM (active).

As for `O=C(NC1=CC(=O)c2ccccc2C1=O)c1ccccc1`, the IC50 in assay [7] was > 66.6 µM (inactive); in [8], 35.7 µM (inactive); in [10], 18.5 µM (active); in assay [12] it was 2.06 µM (active); in [13] it was 3.09 µM (active); in assay [14], 11.7 µM (inactive). Further, the IC50 in [17] was > 66.6 µM (inactive). Also, the CC50 (usually the concentration that lowers cell viability or growth by half) in assay [9] was 2.65 µM (active); in assay [15], 15.2 µM (active). For the same compound, the AC50 – broadly, the concentration at which the activity in the assay is half-maximal – was 4.43 µM (active) in assay [11] and 24.2 µM (active) in assay [18]. For the same compound, the EC50 in assay [16] was 34.1 µM (inactive).

As to `O=C(CSc1nc(N2CCOCC2)nc(N2CCOCC2)n1)Nc1ccc([N+](=O)[O-])cc1`, the EC50 in assay [1] is 21.2 µM (inactive); in [2], > 54.7 µM (inactive); in assay [3], > 54.7 µM (inactive). Besides, in [4], the IC50 was > 89.2 µM (inactive).
